“And” between values parts separate entries of the source, which are not always exact repeats. Equal entries are not always repeated. Inconclusive results and toxic doses are left out. The calls were made as follows: active = survival T/C of 150% or more; inactive = T/C below 125% in these data.
Test system: CD2F1 mice, L1210 leukemia ip, survival T/C
Test: NCI In Vivo Anticancer Drug Screen. Data for tumor model L1210 Leukemia (intraperitoneal) in CD2F1 (CDF1) mice
Details: higher = longer survival
Summary of the method: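 Vehicle-treated tumor-bearing mice served as controls (C) for compound-treated mice (T). Reported figure is T divided by C.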

[1] = endpoint: mean survival time, dose: 100.0 mg/kg/injection, schedule: Q01DX001 (ip), vehicle: saline
[2] = endpoint: mean survival time, dose: 100.0 mg/kg/injection, schedule: Q04DX002 (ip), vehicle: saline
[3] = endpoint: mean survival time, dose: 100.0 mg/kg/injection, schedule: Q04DX003 (ip), vehicle: saline
[4] = endpoint: mean survival time, dose: 100.0 mg/kg/injection, schedule: Q01DX009 (ip), vehicle: saline with Tween-80
[5] = endpoint: mean survival time, dose: 200.0 mg/kg/injection, schedule: Q01DX009 (ip), vehicle: saline with Tween-80
[6] = endpoint: mean survival time, dose: 50.0 mg/kg/injection, schedule: Q01DX009 (ip), vehicle: saline with Tween-80
[7] = endpoint: mean survival time, dose: 100.0 mg/kg/injection, schedule: Q04DX002 (ip), vehicle: saline with Tween-80
[8] = endpoint: mean survival time, dose: 100.0 mg/kg/injection, schedule: Q04DX003 (ip), vehicle: saline with Tween-80
[9] = endpoint: mean survival time, dose: 200.0 mg/kg/injection, schedule: Q04DX003 (ip), vehicle: saline with Tween-80
[10] = endpoint: mean survival time, dose: 400.0 mg/kg/injection, schedule: Q01DX009 (ip), vehicle: saline with Tween-80
[11] = endpoint: mean survival time, dose: 400.0 mg/kg/injection, schedule: Q04DX003 (ip), vehicle: saline with Tween-80
[12] = endpoint: mean survival time, dose: 25.0 mg/kg/injection, schedule: Q04DX002 (ip), vehicle: saline with Tween-80
[13] = endpoint: mean survival time, dose: 50.0 mg/kg/injection, schedule: Q04DX002 (ip), vehicle: saline with Tween-80
[14] = endpoint: mean survival time, dose: 9.5 mg/kg/injection, schedule: Q01DX001 (ip), vehicle: other
[15] = endpoint: mean survival time, dose: 19.0 mg/kg/injection, schedule: Q01DX001 (ip), vehicle: other

Measured: T/C

COc1ccc(Cl)cc1Cn1ccnc1
inactive: endpoint: mean survival time, dose: 50.0 mg/kg/injection, schedule: Q01DX001 (ip), vehicle: saline 104 % of control | endpoint: mean survival time, dose: 50.0 mg/kg/injection, schedule: Q01DX009 (ip), vehicle: saline 115 % of control and 102 % of control | endpoint: mean survival time, dose: 50.0 mg/kg/injection, schedule: Q04DX003 (ip), vehicle: saline 107 % of control | [1] 107 % of control | endpoint: mean survival time, dose: 100.0 mg/kg/injection, schedule: Q01DX009 (ip), vehicle: saline 118 % of control and 107 % of control | [2] 115 % of control and 100 % of control | [3] 115 % of control | endpoint: mean survival time, dose: 200.0 mg/kg/injection, schedule: Q04DX002 (ip), vehicle: saline 117 % of control and 109 % of control

O=C1OC(=O)C2C3CCC(O3)C12 (stereo not given)
inactive: endpoint: mean survival time, dose: 1.56 mg/kg/injection, schedule: Q01DX009 (ip), vehicle: saline 98 % of control | endpoint: mean survival time, dose: 3.12 mg/kg/injection, schedule: Q01DX009 (ip), vehicle: saline 101 % of control | endpoint: mean survival time, dose: 5.0 mg/kg/injection, schedule: Q01DX009 (ip), vehicle: saline with Tween-80 103 % of control | endpoint: mean survival time, dose: 10.0 mg/kg/injection, schedule: Q01DX009 (ip), vehicle: saline with Tween-80 100 % of control | endpoint: mean survival time, dose: 20.0 mg/kg/injection, schedule: Q01DX009 (ip), vehicle: saline with Tween-80 98 % of control

O=C1NC2COC3COc4ccccc4OC3C2N1Cc1ccccc1 (stereo not given)
inactive: endpoint: mean survival time, dose: 75.0 mg/kg/injection, schedule: Q01DX001 (ip), vehicle: saline with Tween-80 93 % of control | endpoint: mean survival time, dose: 150.0 mg/kg/injection, schedule: Q01DX001 (ip), vehicle: saline with Tween-80 95 % of control | endpoint: mean survival time, dose: 300.0 mg/kg/injection, schedule: Q01DX001 (ip), vehicle: saline with Tween-80 93 % of control

c1ccc2[nH]c(CCCCCCCCc3nc4ccccc4[nH]3)nc2c1
inactive: [4] 102 % of control | [5] 104 % of control

N=C1c2ccccc2-c2ccccc21
inactive: [6] 101 % of control | [4] 96 % of control

O=C1C2C=CC=CC1C1C=CC=CC21 (stereo not given)
inactive: endpoint: median survival time, dose: 50.0 mg/kg/injection, schedule: Q04DX002 (ip), vehicle: saline with Tween-80 112 % of control | endpoint: median survival time, dose: 100.0 mg/kg/injection, schedule: Q04DX002 (ip), vehicle: saline with Tween-80 100 % of control | endpoint: median survival time, dose: 200.0 mg/kg/injection, schedule: Q04DX002 (ip), vehicle: saline with Tween-80 100 % of control | endpoint: median survival time, dose: 400.0 mg/kg/injection, schedule: Q04DX002 (ip), vehicle: saline with Tween-80 100 % of control

CCOC(=O)c1ccc(NC(=O)Oc2ccc(NC(C)=O)cc2)cc1
inactive: [4] 95 % of control and 102 % of control | [7] 91 % of control and 94 % of control | [8] 89 % of control | [5] 96 % of control and 100 % of control | endpoint: mean survival time, dose: 200.0 mg/kg/injection, schedule: Q04DX002 (ip), vehicle: saline with Tween-80 94 % of control and 105 % of control | [9] 86 % of control | [10] 92 % of control and 96 % of control | endpoint: mean survival time, dose: 400.0 mg/kg/injection, schedule: Q04DX002 (ip), vehicle: saline with Tween-80 92 % of control | [11] 86 % of control

Cc1ccc(S(=O)(=O)OCCC=C(c2ccccc2)c2ccccc2)cc1
inactive: [6] 101 % of control | [4] 101 % of control | [5] 96 % of control

COc1cc([C@@H]2c3cc4c(cc3C[C@H]3COC(=O)[C@@H]32)OCO4)cc(OC)c1OC
inactive: endpoint: mean survival time, dose: 6.25 mg/kg/injection, schedule: Q01DX015 (ip), vehicle: saline 111 % of control | endpoint: mean survival time, dose: 12.5 mg/kg/injection, schedule: Q01DX015 (ip), vehicle: saline 118 % of control | endpoint: mean survival time, dose: 25.0 mg/kg/injection, schedule: Q01DX015 (ip), vehicle: saline 106 % of control

O=C1NCCN1c1ccc([N+](=O)[O-])cc1
inactive: endpoint: mean survival time, dose: 12.5 mg/kg/injection, schedule: Q01DX009 (ip), vehicle: other 89 % of control | endpoint: mean survival time, dose: 25.0 mg/kg/injection, schedule: Q01DX009 (ip), vehicle: other 103 % of control | endpoint: mean survival time, dose: 50.0 mg/kg/injection, schedule: Q01DX009 (ip), vehicle: other 94 % of control | endpoint: mean survival time, dose: 100.0 mg/kg/injection, schedule: Q01DX009 (ip), vehicle: other 96 % of control | endpoint: mean survival time, dose: 200.0 mg/kg/injection, schedule: Q01DX009 (ip), vehicle: other 96 % of control

CCOc1ccc2c(c1)c(CC(=O)O)cn2C
inactive: endpoint: mean survival time, dose: 100.0 mg/kg/injection, schedule: Q01DX001 (ip), vehicle: other 98 % of control | endpoint: mean survival time, dose: 200.0 mg/kg/injection, schedule: Q01DX001 (ip), vehicle: other 101 % of control | endpoint: mean survival time, dose: 400.0 mg/kg/injection, schedule: Q01DX001 (ip), vehicle: other 98 % of control

CC(=O)N1CCC(Cc2ccccc2)CC1
inactive: [3] 97 % of control | endpoint: mean survival time, dose: 200.0 mg/kg/injection, schedule: Q04DX003 (ip), vehicle: saline 94 % of control | endpoint: mean survival time, dose: 400.0 mg/kg/injection, schedule: Q04DX003 (ip), vehicle: saline 95 % of control

C/C=C(\C)C(=O)OC1C(C)C2(O)C(C=C(CO)CC3(O)C(=O)C(C)=CC32)C2C(C)(C)C12OC(=O)CCCCCCCCC (stereo not given)
inactive: endpoint: mean survival time, dose: 125.0 micrograms/kg/injection, schedule: Q01DX009 (ip), vehicle: saline + alcohol 90 % of control | endpoint: mean survival time, dose: 250.0 micrograms/kg/injection, schedule: Q01DX009 (ip), vehicle: saline + alcohol 95 % of control

O=C(O)c1ccccc1C(=O)c1ccc(CBr)cc1
inactive: endpoint: mean survival time, dose: 6.25 mg/kg/injection, schedule: Q04DX003 (ip), vehicle: saline with Tween-80 93 % of control | endpoint: mean survival time, dose: 12.5 mg/kg/injection, schedule: Q04DX003 (ip), vehicle: saline with Tween-80 101 % of control | endpoint: mean survival time, dose: 25.0 mg/kg/injection, schedule: Q04DX003 (ip), vehicle: saline with Tween-80 101 % of control

C[n+]1cccc(C=O)c1
inactive: [1] 103 % of control | endpoint: mean survival time, dose: 200.0 mg/kg/injection, schedule: Q01DX001 (ip), vehicle: saline 105 % of control | endpoint: mean survival time, dose: 400.0 mg/kg/injection, schedule: Q01DX001 (ip), vehicle: saline 108 % of control

CC(C)(C)c1cc([N+](C)(C)C)cc(C(C)(C)C)n1
inactive: endpoint: mean survival time, dose: 12.5 mg/kg/injection, schedule: Q04DX002 (ip), vehicle: saline with Tween-80 96 % of control | [12] 92 % of control | [13] 100 % of control

Cc1ccc([N+](=O)[O-])cc1NC(=O)NNC(=O)CNC(=O)Nc1cccc(C(F)(F)F)c1
inactive: [4] 92 % of control | [5] 89 % of control | [10] 96 % of control

FC(F)(F)/C([S-])=C(/[S-])C(F)(F)F.[Ni].[c-]1[c-][c-][cH-][c-]1
inactive: [14] 92 % of control | [15] 93 % of control

O=c1oc2c(O)c(O)cc3c(=O)oc4c(O)c(O)cc1c4c23
inactive: endpoint: mean survival time, dose: 12.5 mg/kg/injection, schedule: Q01DX009 (ip), vehicle: Klucel (hydroxypropylcellulose) (HPC) 100 % of control | endpoint: mean survival time, dose: 25.0 mg/kg/injection, schedule: Q01DX009 (ip), vehicle: Klucel (hydroxypropylcellulose) (HPC) 113 % of control | endpoint: mean survival time, dose: 50.0 mg/kg/injection, schedule: Q01DX009 (ip), vehicle: Klucel (hydroxypropylcellulose) (HPC) 113 % of control | endpoint: mean survival time, dose: 100.0 mg/kg/injection, schedule: Q01DX009 (ip), vehicle: Klucel (hydroxypropylcellulose) (HPC) 106 % of control | endpoint: mean survival time, dose: 200.0 mg/kg/injection, schedule: Q01DX009 (ip), vehicle: Klucel (hydroxypropylcellulose) (HPC) 95 % of control | endpoint: mean survival time, dose: 400.0 mg/kg/injection, schedule: Q01DX009 (ip), vehicle: Klucel (hydroxypropylcellulose) (HPC) 103 % of control

CCOP(=O)(OCC)C1=C(P(=O)(OCC)OCC)C(F)(F)C1(F)F
inactive: [14] 97 % of control | [15] 97 % of control | endpoint: mean survival time, dose: 38.0 mg/kg/injection, schedule: Q01DX001 (ip), vehicle: other 91 % of control

Cc1ccc(S(=O)(=O)OCC2C3CCC(C3)C2COS(=O)(=O)c2ccc(C)cc2)cc1 (stereo not given)
inactive: [12] 95 % of control | [13] 95 % of control | [7] 95 % of control and 98 % of control

O=C(c1ccccc1)c1ccc(-c2ccccc2)c(=O)o1
inactive: [4] 95 % of control | [8] 100 % of control | [5] 95 % of control | [9] 98 % of control | [10] 92 % of control | [11] 102 % of control

CN=C(N)CS
inactive: endpoint: mean survival time, dose: 25.0 mg/kg/injection, schedule: Q04DX002 (ip), vehicle: saline 101 % of control | endpoint: mean survival time, dose: 50.0 mg/kg/injection, schedule: Q04DX002 (ip), vehicle: saline 101 % of control | [2] 101 % of control

O=C1C=CC(O)CCC1 (stereo not given) (tested in a mixture with another compound)
inactive: [8] 101 % of control | [9] 101 % of control | [11] 97 % of control

Reference: PubChem BioAssay AID256 (DTP/NCI, 2004)
